Experiments:
Test in all cases: Proliferation of insulin-specific NOD T cell clone
Assay type in all cases: cell-based, mouse
Conditions in all cases: 50 μg/ml peptide, 72 hours
T cell clone PD12-2.40 = system: T cell clone PD12-2.40
Method: (§1) Insulin specific NOD T cell lines were established by culturing lymphocytes isolated from islet-infiltrating populations by in vitro stimulation with either porcine insulin at 25 μg/ml and irradiated NOD islet cells in the presence of irradiated NOD spleen cells as antigen presenting cells and cytokines. To obtain the infiltrating lymphocytes the following procedures were performed (see WeLimann et al., Eur. J. Immunol. 24:1853, 1994): the pancreas from the NOD mouse was digested with collatenase and individual islets were isolated manually. The infiltrating lymphocytes were then obtained by mild trypsin digestion of the islets. The insulin specific T cell lines or clones were propagated by serial stimulation in the presence of NOD spleen cells, porcine insulin and lymphokines. Clones were obtained by limiting dilution of the B chain (9-23) specific T cell lines in the presence of the antigen presenting cells and porcine insulin at 25 μg/ml. Wells with a growing population of cells following limiting dilution were expanded in appropriate medium, and after one cycle of growth were tested for reactivity to the B chain (9-23) peptide of insulin by evaluating the proliferative response.
(§2) Insulin B chain (9-23) (SEQ ID NO:2) specific mouse (NOD) T cell clones were isolated from infiltrated islets as described in Example 2. Peptide analogues with single alanine substitutions were prepared as described in Example 1. The effect of each analogue on T cell prolircration was then evaluated using an assay performed in 96-well flat bottom microtiter plates (see Daniel et al., Eur. J. Immunol. 25 :1056, 1995). Briefly 25,000 T cell clones along with 1 million irradiated NOD spleen cells were cultured in the presence of 50 μg/ml of insulin B chain 9-23 peptide or any of the alanine substituted peptides listed below in triplicate sets. The plates were incubated for a total of 72 hours in 7% carbon dioxide atmosphere with a pulse of 1 μCi/well of tritiated thymidine for the last 6-8 hours of culture. Cells were harvested on a glass fiber filter and the associated radioactivity was counted in a liquid scintillation counter. Results are expressed as mean counts per minute of triplicate wells.
NOD T cell clones were incubated in the presence of 50 μM of either the native B chain (9-23) peptide or NBI-6024. The data in Table 3 represent the mean of triplicate sample±standard error of the mean. Within Table 3, S.I. (Stimulation Index)=proliferation (cpm) in the presence of the peptide/proliferation (cpm) in medium alone.

T cell clone PD12-4.4 = system: T cell clone PD12-4.4
Method: as §1, §2

T cell clone PD6-4.3 = system: T cell clone PD6-4.3
Method: as §1, §2

T cell clone PD12-4.29 = system: T cell clone PD12-4.29
Method: as §1, §2

T cell clone PD12-4.34 = system: T cell clone PD12-4.34
Method: as §1, §2

| Substance | Response (cpm) (T cell clone PD12-2.40) | Response (cpm) (T cell clone PD12-4.4) | Response (cpm) (T cell clone PD6-4.3) | Response (cpm) (T cell clone PD12-4.29) | Response (cpm) (T cell clone PD12-4.34) |
| --- | --- | --- | --- | --- | --- |
| Modified Position 10: insulin B chain (9-23) peptide analogue with native residue H at position 10 substituted with alanine | 1409 | 823 | 12507 | 15484 | 356 |
| Modified Position 21: insulin B chain (9-23) peptide analogue with native residue E at position 21 substituted with alanine | 39087 | 7900 | 91 | 4904 | 773 |
| Modified Position 20: insulin B chain (9-23) peptide analogue with native residue G at position 20 substituted with alanine | 38685 | 1323 | 2440 | 13736 | 466 |
| Modified Position 19: insulin B chain (9-23) peptide analogue with native residue C at position 19 substituted with alanine | 34212 | 4295 | 7678 | 6054 | 689 |
| Modified Position 22: insulin B chain (9-23) peptide analogue with native residue R at position 22 substituted with alanine | 51722 | 1313 | 6555 | 12635 | 1555 |
| Modified Position 23: insulin B chain (9-23) peptide analogue with native residue G at position 23 substituted with alanine | 75441 | 3228 | 14304 | 18422 | 791 |
| Modified Position 11: insulin B chain (9-23) peptide analogue with native residue L at position 11 substituted with alanine | 2594 | 474 | 14148 | 18416 | 190 |
